The record followed here is patent publication US20180087023A1, “METHOD OF PRODUCING BIOPRODUCTS” (White Dog Labs, Inc., priority 2015, published 2018).

Series [1] in a line: Single-stage extraction of 2% aqueous bioproduct solutions with extractant (Examples 1-9). The settings on record: for Raffinate Bioproduct conc. (%) / Extract Bioproduct conc. (%): 100 g of 2% aqueous solution mixed with 100 g extractant of 80% 1-butene + 20% DME; for Raffinate Bioproduct conc. (%): raffinate phase; for Extract Bioproduct conc. (%): pressure vessel, extract phase; for DC (bioproduct distribution coefficient): extract/raffinate, extractant 80% 1-butene + 20% DME, ambient temperature (Table 1); for Distribution coefficient, 100% DME: extractant 100% DME (Table 2). The series is classed as physicochemical. On the procedure:
Extraction of various bioproducts with an extractant composed of 80% 1-butene and 20% dimethylether (DME) 100 grams (g) of aqueous solutions of various bioproducts were prepared. Bioproduct initial concentration was 2%. Each of these bioproduct aqueous solutions was extracted in a pressure vessel by mixing with 100 g of extractant composed of 80% 1-butene (the hydrocarbon) and 20% dimethylether (the oxygenated compound) at ambient temperature. The amount of formed extract and formed raffinate and the concentration (conc.) of the bioproduct in each were determined. Theses concentrations were used to calculate the bioproduct distribution coefficient (DC). Also determined was the concentration of DME in the raffinate. Table 2 compares the found distribution coefficients to those of extracting with an extractant composed of 100% DME.

The nature of series [2]: Effect of DME/1-butene ratio in the extractant on n-butanol extraction (Example 10). Type of series: physicochemical. The settings on record: after extracting 2% n-butanol solution, 1:1 w/w, room temperature. As for the experimental part: Extractant to aqueous solution weight/weight ratio was 1 to 1. Distribution coefficients, extractant concentration in the raffinate and extraction yield (single stage extraction at the selected extractant/aqueous solution weight/weight ratio) were determined and are summarized in Table 3.

With `CCCC(C)=O` [2-Pentanone], in series [1] (ambient temperature), the “Raffinate Bioproduct conc. (%)” value is on record as 0.22% and the “Extract Bioproduct conc. (%)” value is 1.89%. In series [1], the “DC (bioproduct distribution coefficient)” value came to 8.45 and the “Distribution coefficient, 100% DME” value turned out to be 5.82.

In the case of `CCCC=O` [Butanal], in series [1] (ambient temperature), the “Raffinate Bioproduct conc. (%)” value stood at 0.26% and the “Extract Bioproduct conc. (%)” value is given as 1.85%. In series [1], the “DC (bioproduct distribution coefficient)” value is 7.16 and the “Distribution coefficient, 100% DME” value is reported as 5.11.

Turning to `COC` [DME, dimethylether, reference compound], the “Wt % Extractant in Raffinate” value in series [2] amounted to 31.0%. In addition, the “Raffinate DME conc. (%)” value in series [1] (DME in raffinate after extracting each 2% bioproduct solution with 80% 1-butene + 20% DME, ambient temperature) was 4.5%.

For `O=Cc1ccco1` [Furfural], in series [1] (ambient temperature), the “Raffinate Bioproduct conc. (%)” value is 0.46% and the “Extract Bioproduct conc. (%)” value is on record as 0.162%. Besides, in series [1], the “DC (bioproduct distribution coefficient)” value is on record as 3.54 and the “Distribution coefficient, 100% DME” value was found to be 3.79.

Regarding `O=C1CCCO1` [Gamma Butyrolactone], in series [1] (ambient temperature), the “Raffinate Bioproduct conc. (%)” value stood at 0.37% and the “Extract Bioproduct conc. (%)” value came to 0.172%. Besides, in series [1], the “DC (bioproduct distribution coefficient)” value is 4.63 and the “Distribution coefficient, 100% DME” value is on record as 3.14.

As to `O=C(O)CCCC(=O)O` [Glutaric Acid], in series [1] (ambient temperature), the “Raffinate Bioproduct conc. (%)” value turned out to be 1.37% and the “Extract Bioproduct conc. (%)” value is recorded as 0.56%. Further, in series [1], the “DC (bioproduct distribution coefficient)” value came out at 0.43 and the “Distribution coefficient, 100% DME” value was 1.88.

`CCCC(=O)OC` [Methyl Butyrate]: in series [1] (ambient temperature), the “Raffinate Bioproduct conc. (%)” value is 0.034% and the “Extract Bioproduct conc. (%)” value was determined as 2.12%. In addition, in series [1], the “DC (bioproduct distribution coefficient)” value was found to be 61.1 and the “Distribution coefficient, 100% DME” value came out at 20.73. In addition, in series [1] (extractant 20% DME + 80% 1-butene (Table 2)), the “Distribution coefficient, 20% DME + 80% 1-Butene” value came out at 61.14.

As to `CCC(=O)O` [Propionic Acid], in series [1] (ambient temperature), the “Raffinate Bioproduct conc. (%)” value came to 0.92% and the “Extract Bioproduct conc. (%)” value is reported as 1.09%. Further, in series [1], the “DC (bioproduct distribution coefficient)” value is given as 1.18 and the “Distribution coefficient, 100% DME” value is on record as 2.27.

`O=C(O)CCC(=O)O` [Succinic Acid]: in series [1] (ambient temperature), the “Raffinate Bioproduct conc. (%)” value is on record as 1.66% and the “Extract Bioproduct conc. (%)” value stood at 0.22%. Also, in series [1], the “DC (bioproduct distribution coefficient)” value is recorded as 0.13 and the “Distribution coefficient, 100% DME” value is listed as 1.01.
